PMC9231138, “Dihydrotanshinone I Enhances Cell Adhesion and Inhibits Cell Migration in Osteosarcoma U−2 OS Cells through CD44 and Chemokine Signaling” (Molecules, 2022)

Assays:
Type in all cases: cell-based, human
U−2 OS cells = assay: Cell cycle distribution by flow cytometry; conditions: 24 h, mean ± SD
Procedure: The cell cycle is a key regulator of cell survival and the repair signal network. It has direct effects on multiple cell processes, including cell proliferation, DNA repair, apoptosis, and cell migration. Thus, it was further analyzed by flow cytometry. As shown in Table 2 and Figure 5A–E, after treatment with DS−1 at doses of 0, 2.5, 5.0, and 7.5 µM for 24 h, the distribution of the cell cycle was measured and the proportion of the G0/G1 phase was 54.70 ± 2.21%, 61.07 ± 2.04%, 65.20 ± 4.35%, and 65.65 ± 1.83%, respectively. In addition, the proportion of U−2 OS cells at the G0/G1 phase increased with the increase in the DS−1 concentration (Figure 5A–E), implying possible cell cycle arrest at the G0/G1 phase.
Figure 5 DS−1 regulated the cell cycle of U−2 OS cells. (A–D) Cell cycle of U−2 OS cells was retained in the G0/G1 phase. U−2 OS cells were treated with DS−1 at 0, 2.5, 5.0, and 7.5 µM for 24 h, and the cell cycle ratio was measured by flow cytometry; the cell cycle distribution is shown in Table 2. (E) Histogram of cell cycle distribution after U−2 OS cells were treated with DS−1. (F) Heatmap of the expression of genes relating to cell cycle in the transcriptome results. (G–K) In U−2 OS cells treated with DS−1 at concentrations of 0, 2.5, 5.0, and 7.5 μM, RNA was extracted and analyzed by RT-PCR, and the changes in CDK2, cyclin D1, cyclin E1, and p21 mRNA are presented in the histogram. (L) Cyclin D1 and cyclin E1 protein relative expression was analyzed by Western blot. Values are the average of three independent experiments, * p < 0.05, ** p < 0.01, *** p < 0.005. TEXT PRINTED IN THE PICTURE: (A) DS-1: G1(54.88%) (0 μM); S(19.57%) (0 μM); G2(23.84%) (0 μM) | (B) DS-1: G1(60.37%) (2.5 μM); S(18.70%) (2.5 μM); G2(19.44%) (2.5 μM) | (C) DS-1: G1(65.10%) (5.0 μM); S(16.87%) (5.0 μM); G2(16.41%) (5.0 μM) | (D) DS-1: G0G1(65.65%) (7.5 μM); S(14.20%) (7.5 μM); G2M(19.60%) (7.5 μM) DOUBTS OF THE COPYIST ABOUT THIS PICTURE: The label DS-1 is printed only in panel L ("DS-1(μM)"); panels A-D print only the concentration, no substance label / Panel A (0 μM) is the untreated state; its values are given with the 0 μM heading as condition / All gate percentages in panels A-D are printed very small and blurred; 3, 5, 6, 8 and 9 cannot be told apart with certainty / A, G1: 54.88% or 54.89% / 54.68% / A, S: 19.57% or 19.67% / A, G2: 23.84% or 23.64% / B, G1: 60.37% or 60.31% / 80.37% / B, S: 18.70% or 16.70% / B, G2: 19.44% or 18.44% / C, G1: 65.10% or 65.16% / 63.10% / C, S: 16.87% or 16.67% / 18.87% / C, G2: 16.41% or 18.41% / D, G0G1: 65.65% or 65.85% / 66.65% / D, S: 14.20% or 14.26% / D, G2M: 19.60% or 19.80% / 19.66%

cyclin E1 = assay: RT-PCR cyclin E1 mRNA in U−2 OS cells; conditions: 24 h
Procedure: (§1) Total RNA within cells was extracted by the RNAeasy™ Animal Long RNA Isolation Kit with Spin Column (Shanghai, Beyotime); the concentrations and OD260/OD280 and OD230/OD260 values were measured by NanoDrop. Five micrograms of RNA was used for reverse transcription; each sample was diluted to 16 μL, and 4 μL of synthesized premix solution (5×) was added, then the mixtures were placed in a 42 °C water bath for 10 min, then an 80 °C water bath for 10 min to deactivate reverse transcriptase. After reverse transcription, each sample was diluted to 140 μL. PCR amplification was carried out by the ABI700 real-time PCR system, and the amplification reaction was detected with a SYBR probe. After PCR, actin and GAPDH were used as internal references, and the relative standard curve method (2^−ΔΔcT) determined the relative expression of mRNA.

STAT3 = assay: Western blot STAT3; conditions: DS−1 2.5, 5.0, and 7.5 µM, 24 h
Procedure: Sample preparation: U−2 OS cells seeded in 10 cm Petri dishes were collected and washed with ice-cold PBS and RIPA lysis buffer with PMAF; phosphatase inhibitor was added, and the tubes were placed on ice for 30 min and vortexed for 30 s at intervals of 10 min. The samples were centrifuged at 12,000 g at 4 °C for 15 min, and the supernatants were collected in new centrifuge tubes. The protein samples were placed on ice, and the concentration of each protein sample was measured by the BCA kit (Thermo). The protein concentration was adjusted to the same by milli Q ultrapure water.
Loading and running the gel: Equal amounts of protein were loaded into the wells of the 10% SDS-PAGE gel, along with molecular weight markers, and 15 μg of total protein from the cell lysate was loaded. We then ran the gel for 45 min at 200 V.
Transferring the protein: We prepared the transfer stack as follows: negative plate, sponge, filter paper, gel, PVDF membrane, filter paper, sponge, and positive plate. The transfer was for 90 min at 200 mA.
Antibody staining: We blocked the membrane for 1 h at room temperature using 5% blocking solution, then incubated the membrane with appropriate dilutions of the primary antibody in the blocking solution overnight at 4 °C. […] Images were acquired using darkroom development techniques for chemiluminescence and analyzed by Image J.

FASN = assay: RT-PCR FASN mRNA in U−2 OS cells; conditions: 24 h
Procedure: as §1

Cc1cccc2c3c(ccc12)C1=C(C(=O)C3=O)[C@@H](C)CO1 [DS−1, 15,16-Dihydrotanshinone I]
proportion of cells in G0/G1 phase (U−2 OS cells; DS−1 2.5 µM): 61.07 ± 2.04%
proportion of cells in G2/M phase (U−2 OS cells; DS−1 2.5 µM): 18.65 ± 3.50
proportion of cells in S phase (U−2 OS cells; DS−1 2.5 µM): 20.10 ± 2.07
proportion of cells in G0/G1 phase (U−2 OS cells; DS−1 5.0 µM): 65.20 ± 4.35%
proportion of cells in G2/M phase (U−2 OS cells; DS−1 5.0 µM): 14.92 ± 4.67
proportion of cells in S phase (U−2 OS cells; DS−1 5.0 µM): 19.55 ± 3.08
proportion of cells in G0/G1 phase (U−2 OS cells; DS−1 7.5 µM): 65.65 ± 1.83%
proportion of cells in G2/M phase (U−2 OS cells; DS−1 7.5 µM): 19.60 ± 1.40
proportion of cells in S phase (U−2 OS cells; DS−1 7.5 µM): 14.20 ± 0.40
cyclin E1 mRNA, fold of the control group (cyclin E1; first of three DS−1 doses (2.5 µM per Fig. 5 legend)): 0.52 ± 0.04 fold
cyclin E1 mRNA, fold of the control group (cyclin E1; second of three DS−1 doses (5.0 µM per Fig. 5 legend)): 0.48 ± 0.08 fold
cyclin E1 mRNA, fold of the control group (cyclin E1; third of three DS−1 doses (7.5 µM per Fig. 5 legend)): 0.36 ± 0.04 fold
total protein content of STAT3 (STAT3): did not change significantly
FASN mRNA, fold of the control group (FASN; DS−1 2.5 µM): 0.59 ± 0.14 fold
FASN mRNA, fold of the control group (FASN; DS−1 5.0 µM): 0.51 ± 0.07 fold
FASN mRNA, fold of the control group (FASN; DS−1 7.5 µM): 0.26 ± 0.01 fold
